Patent US20020142287A1, “High throughput assay to detect inhibitors of the map kinase pathway” (priority 2000, published 2002)
Entries after “also recorded” stand apart in the source; their conditions may differ.

Columns and labels:
[1] = test system: c-Fos protein in SNB-19 cells; experiment: Growth-stimulated c-Fos protein induction, Western blot; format: cell-based, human; details: 50 μM U0126, 1 μM FTI, 50 μM PD98059; for c-Fos protein induction: 0.5-8 hr after plating
Method: Quiescent SNB-19 cells were plated into fresh growth media and incubated for 0.5, 1, 2, 3, 4, 6, and 8 hr in the presence of inhibitors of the MAPK pathway, and the cells were harvested for c-Fos protein analysis by Western blot. 20 μg of total protein per lane were used. c-Fos protein induction without inhibitors was shown as a control.
Procedure for Western Blot. To detect c-Ets-1 and c-Fos protein expression in brain tumor cell lines, 20 μg of protein cell lysates were loaded on a 8% SDS-polyacrylamide gel immediately after boiling each sample in the presence of 2% mercaptoethanol. After electrophoresis, proteins were transferred to a PVDF membrane and the membrane was blocked with 5% BSA in PBS. The membrane was then incubated with either a 1:10,000 dilution of monoclonal anti-human c-Ets-1 antibody (Clone 47, Transduction Laboratory, Ky.) or anti-human c-Fos antibody (Santa Cruz Biotechnology, Inc.) in Tris-buffered saline pH 7.4 (TBS) containing 2% BSA and 0.1% Tween 20 for 1 h at room temperature. The membrane was then washed with TBS containing 2% BSA and 0.1% Tween 20 for 10 min, followed by washing twice with 0.1% Tween 20 in TBS. Next, the membrane was incubated with a 1:10000 dilution of horseradish peroxidase-conjugated anti-mouse IgG (Amersham, UK) for 1 h at room temperature in 2% BSA in TBS containing 0.1% Tween 20. The membrane was then washed as described above, and developed with the ECL Chemiluminescence detection system (Amersham, UK) according to manufacturer's instructions.

[2] = test system: SNB-19 cells; experiment: Growth-stimulated induction of c-fos and invasion-associated mRNA in quiescent cells plated into fresh growth media, Northern analysis; format: cell-based, human; details: for effect on expression of uPA, GnT-V and c-ets-1 mRNA induced by growth stimulation: 2 and 6 hr after plating into fresh growth media
Method: (§1) Procedure for Northern Blot. Surgical specimens were immediately frozen in liquid nitrogen upon resection. Total RNA was isolated from clinical glioma specimens and cultured brain tumor cells using guanidium isothiocyanate followed by […] centrifugation. 10-20 μg of total RNA per tumor cell line per lane were electrophoresed in an agarose-formaldehyde gel and transferred to Duralon nylon membranes (Stratagene, La Jolla, Calif.). After UV cross-linking, the blots were hybridized with a ^32P-radiolabeled cDNA probe synthesized by using a random priming kit (Stratagene, La Jolla, Calif.) and ExpressHyb solution (Clontech, Palo Alto, Calif.). The blots were then exposed to X-OMAT film (Kodak, Rochester, N.Y.) and the films were developed appropriately.
Modulators of the MAPK pathway also modulated the growth-stimulated mRNA expression of c-Fos and invasion-related protein MRNA expression. Quiescent SNB-19 cells were plated in fresh growth media either in the presence of 80 μM PD98059, a MEK/MAPKK inhibitor, or the absence of inhibitor, as a control. Induction was measured by observing MRNA expression over time (FIG. 6).
Quiescent SNB-19 cells were growth induced by plating into fresh growth media for 2 and 6 hr. c-Fos expression was monitored by observing the mRNA levels of the downstream genes uPA, GNT-V, and c-ets-1 (see FIG. 8).

[3] = test system: SNB-19 cells; experiment: Suppression of PDBu-mediated mRNA induction by a MAPKK inhibitor, Northern analysis; format: cell-based, human
Method: as §1
The assay was modified for use in the identification of compounds that can inhibit gene expression. To identify compounds that may affect the growth, migration or invasivity of tumor cells, the assay described below is provided. To activate the quiescent cells, SNB-19 glioma cells are cultured in the presence of 150 nM Phorbol 12, 13-dibutyrate (PDBu, Sigma Chemical Co.) for 24 hr. The cells are then contacted with a test compound that may affect expression of GnT-V, c-ets-1, uPA, MMP-1, or MMP-3. Compounds shown to inhibit expression of any, multiple, or all of the sequences are selected for further study. […]

[4] = test system: c-fos promoter/luciferase gene transfectant (clone 60) of SNB-19 glioma cells; experiment: Luciferase mRNA expression in stable c-fos promoter/luciferase gene transfectant, Northern analysis; format: cell-based, human; details: 1, 2, 3, 6, and 24 hr in the presence of inhibitor
Method: A quiescent c-fos promoter/luciferase gene transfectant (clone 60) was plated into fresh growth media and incubated for 1, 2, 3, 6, and 24 hr in the presence of MEK/MAPKK inhibitors, and the cells were harvested for detection of luciferase mRNA expression by Northern analysis. 10 μg of total RNA per lane were used.
The 498 bp promoter region of the human c-Fos gene was amplified by genomic PCR using sense primer 5′-[…]-3′ (SEQ ID No. 7) and antisense primer 5′-[…]-3′ (SEQ ID No. 8), ligated into the pCR II vector (Invitrogen, San Diego, Calif.). […] Antisense orientation of the c-fos promoter/pCR II plasmid was digested with Hind III and Xho I restriction enzymes and the digested fragment was ligated into the Hind III and Xho I sites of the luciferase vector pGL3-basic (Promega, Madison, Wis.). The c-fos promoter/pGL3 plasmid DNA was digested with Sma I and Xba I and the digested fragment was ligated into the Nru I and Xba I sites of the pcDNA 3 vector (Invitrogen). This final construct contains the luciferase gene under control of the c-fos promoter instead of the control of the CMV promoter. The plasmid DNA was stably transfected into human glioma SNB-19 cells using the cationic liposome system, DOTAP (Boehringer Mannheim, Indianapolis, Ind.). The transfected cells were further cultured for 3 weeks in selection medium containing 800 μg/ml of G418 and then individual clones were isolated with cloning rings. Isolated clones were further cultured for 4 weeks in selection medium and were examined for luciferase gene expression by Northern analysis. […] Three representative clones (34, 56, and 60) were further characterized.
The suppression of luciferase gene expression by inhibitors of MAPK pathway in the stable transfectants was determined.

[5] = test system: SNB-19 cells; experiment: Induction of invasion-associated gene mRNA by phorbol ester, Northern analysis; format: cell-based, human; details: 150 nM PDBu, 24 hr incubation
Method: as §1
The effects of a test compound, a phorbol ester (a Protein Kinase C (PKC) activator), on the coordinated expression of a panel of sequences was determined. SNB-19 cells were cultured in the presence of 150 nM phorbol 12, 13-dibutyrate (PDBu, Sigma Chemical Co.) for 24 hr. Expression of GnT-V, c-ets-1, uPA, MMP-1, and MMP-3 mRNA was then assayed by northern blot on total RNA from the cells. A panel of nucleic acid probes corresponding to GnT-V, c-ets-1, uPA, MMP-1, and MMP-3 were prepared as described above and utilized to detect expression of the corresponding mRNA in treated or untreated SNB-19 cells. […]

[6] = test system: MEK/MAPK Kinase (MAPKK); details: cited from earlier work
[7] = test system: SNB-19 glioma cells; details: data not shown
[8] = test system: p42/p44 ERK/MAPK proteins; details: 50 μM U0126, SNB-19 cells
Method: Quiescent SNB-19 cells were plated into fresh growth media and incubated for 0.5, 1, 2, 3, 4, 6, and 8 hr, and the cells were harvested for Northern analysis (FIG. 10A-10C) and Western blot analysis (FIG. 10D).

Compound: COc1cccc(-c2cc(=O)c3ccccc3o2)c1N [PD98059, 2′-amino-3′-methoxyflavone]
- potency of inhibition of c-Fos protein induction (rank order) [1]: 50 μM U0126>1 μM FTI>50 μM PD98059
- c-Fos protein induction [1]: weak suppression
- growth-stimulated induction of c-fos, c-ets-1, GnT-V, and uPA mRNA expression ([2]; 80 μM PD98059, 0.5-8 hr after plating into fresh growth media): suppression; also recorded: suppressed
- PDBu-induced GnT-V, c-ets-1, MMP-1, and MMP-3 mRNA induction (b19 also uPA) ([3]; 150 nM PDBu 24 hr, 15 and 80 μM PD98059, 15 μM): completely abolished
- uPA mRNA expression in PDBu-stimulated cells ([3]; 150 nM PDBu, PD98059 15 and 80 μM): decreased in a dose-dependent manner
- luciferase mRNA expression [4]: slightly suppressed
- luciferase mRNA expression ([4]; listed as PD98056): suppress

Compound: COc1cc2ncnc(Nc3cccc(Br)c3)c2cc1OC [PD153035]
- effect on expression of uPA, GnT-V and c-ets-1 mRNA induced by growth stimulation [2]: no effect

Compound: CCCC(=O)O[C@@H]1[C@@H](C)[C@@]2(O)[C@@H](C=C(CO)C[C@]3(O)C(=O)C(C)=C[C@@H]23)[C@@H]2C(C)(C)[C@]12OC(=O)CCC [PDBu, Phorbol 12, 13-dibutyrate]
- induction of GnT-V, c-ets-1, uPA, MMP-1, and MMP-3 mRNA expression [5]: marked induction; also recorded: induced

Compound: N#CC(=C(/N)Sc1ccccc1N)/C(C#N)=C(\N)Sc1ccccc1N [U0126]
- potency as MEK/MAPKK inhibitor relative to PD98059 [6]: 30 times
- potency of inhibition of c-Fos protein induction (rank order) [1]: 50 μM U0126>1 μM FTI>50 μM PD98059
- c-Fos protein induction [1]: completely inhibited
- growth-stimulated induction of GnT-V, uPA and c-ets-1 mRNA expression ([2]; 50 μM U0126, 0.5-8 hr after plating into fresh growth media): strongly suppressed; also recorded: suppressed the induction
- adhesion-mediated protein tyrosine phosphorylation [7]: little effect
- luciferase mRNA expression [4]: greatly suppressed; also recorded: greater inhibition
- phosphorylation of p42/p44 ERK/MAPK [8]: completely inhibited

Compound: COC[C@H]1OC(=O)c2coc3c2[C@@]1(C)C1=C(C3=O)[C@@H]2CCC(=O)[C@@]2(C)C[C@H]1OC(C)=O [Wortmannin]
- effect on expression of uPA, GnT-V and c-ets-1 mRNA induced by growth stimulation [2]: no effect
